From patent publication US20080075788A1, “DIAMMONIUM PHOSPHATE AND OTHER AMMONIUM SALTS AND THEIR USE IN PREVENTING CLOTTING” (priority 2006, published 2008)
Where two headings read alike, the source gives them in different places.

Assays:
human plasma = conditions: for effect on the clotting time of human plasma: APTT test; for APTT Average: average of subjects
Method: (§1) Coagulation time of fresh whole blood can be determined with the Lee-White test by visually observing clot formation. Activation of the intrinsic coagulation pathway can be determined by measuring the activated partial thromboplastin time (APTT) as for example, shown in the FIGURE. In this test, the time to formation of a fibrin clot in re-calcified citrated plasma is measured using a coagulation analyzer instrument.
Clotting times of plasma samples were measured using the Amelung KC 4 A™ micro coagulation analyzer (Sigma Diagnostics, Germany). A cuvette was placed into a rotating well of the analyzer and a small stainless steel ball was dispensed into the cuvette. 100 μL of Pathromtin SL reagent were dispensed into the cuvette and then 100 μL of human plasma were added. For trials with the solution, 10 μL of water or of a solution dilution were added. After 2 minutes of incubation, 100 μL of CaCl2 were dispensed into each cuvette. The analyzer timer was started immediately and clotting time was recorded when the timer stopped.
On each day, control plasma N (normal) and control plasma P (abnormal/prolonged) were tested for quality control. At least two identical samples (duplicates) were tested simultaneously for each trial. The means and percent differences between duplicates were calculated. If the difference between duplicates was twenty percent or less, that trial's data was used for further analysis.

whole sheep blood = conditions: liquid component added to blood, versus control
Method: as §1

[1] = listed as diammonium phosphate solution

N.N.O=P(O)(O)O [Sample A liquid, diammonium hydrogen-phosphate]
effect on the clotting time of human plasma (human plasma; listed as diammonium hydrogen-phosphate solution): prolongs the clotting time of human plasma | effect on the clotting time of human plasma (human plasma; [1]): delay and/or prevent clotting | APTT Average (human plasma; NH4 Conc. 10 mM in the 310 μL total volume): 42.7 s | Subject APTT (human plasma; NH4 Conc. 10 mM in the 310 μL total volume, subject 1): 49.8 s | Subject APTT (human plasma; NH4 Conc. 10 mM in the 310 μL total volume, subject 2): 36.5 s | Subject APTT (human plasma; NH4 Conc. 10 mM in the 310 μL total volume, subject 3): 42.6 s | Subject APTT (human plasma; NH4 Conc. 10 mM in the 310 μL total volume, subject 4): 42.9 s | Subject APTT (human plasma; NH4 Conc. 10 mM in the 310 μL total volume, subject 5): 47.9 s | Subject APTT (human plasma; NH4 Conc. 10 mM in the 310 μL total volume, subject 6): 39.0 s | Subject APTT (human plasma; NH4 Conc. 10 mM in the 310 μL total volume, subject 7): 32.5 s | Subject APTT (human plasma; NH4 Conc. 10 mM in the 310 μL total volume, subject 8): 50.9 s | APTT Average (human plasma; NH4 Conc. 20 mM in the 310 μL total volume): 50.8 s | Subject APTT (human plasma; NH4 Conc. 20 mM in the 310 μL total volume, subject 1): 64.5 s | Subject APTT (human plasma; NH4 Conc. 20 mM in the 310 μL total volume, subject 2): 46.3 s | Subject APTT (human plasma; NH4 Conc. 20 mM in the 310 μL total volume, subject 4): 47.3 s | Subject APTT (human plasma; NH4 Conc. 20 mM in the 310 μL total volume, subject 5): 62.2 s | Subject APTT (human plasma; NH4 Conc. 20 mM in the 310 μL total volume, subject 6): 38.0 s | Subject APTT (human plasma; NH4 Conc. 20 mM in the 310 μL total volume, subject 7): 37.7 s | Subject APTT (human plasma; NH4 Conc. 20 mM in the 310 μL total volume, subject 8): 59.7 s | APTT Average (human plasma; NH4 Conc. 30 mM in the 310 μL total volume): 67.6 s | Subject APTT (human plasma; NH4 Conc. 30 mM in the 310 μL total volume, subject 1): 79.8 s | Subject APTT (human plasma; NH4 Conc. 30 mM in the 310 μL total volume, subject 2): 52.8 s | Subject APTT (human plasma; NH4 Conc. 30 mM in the 310 μL total volume, subject 3): 64.2 s | Subject APTT (human plasma; NH4 Conc. 30 mM in the 310 μL total volume, subject 4): 64.6 s | Subject APTT (human plasma; NH4 Conc. 30 mM in the 310 μL total volume, subject 5): 86.9 s | Subject APTT (human plasma; NH4 Conc. 30 mM in the 310 μL total volume, subject 6): 58.5 s | Subject APTT (human plasma; NH4 Conc. 30 mM in the 310 μL total volume, subject 7): 57.5 s | Subject APTT (human plasma; NH4 Conc. 30 mM in the 310 μL total volume, subject 8): 76.4 s | APTT Average (human plasma; NH4 Conc. 40 mM in the 310 μL total volume): 185.2 s | Subject APTT (human plasma; NH4 Conc. 40 mM in the 310 μL total volume, subject 1): 236.5 s | Subject APTT (human plasma; NH4 Conc. 40 mM in the 310 μL total volume, subject 4): 154.4 s | Subject APTT (human plasma; NH4 Conc. 40 mM in the 310 μL total volume, subject 5): 186.2 s | Subject APTT (human plasma; NH4 Conc. 40 mM in the 310 μL total volume, subject 6): 111.9 s | Subject APTT (human plasma; NH4 Conc. 40 mM in the 310 μL total volume, subject 7): 166.2 s | Subject APTT (human plasma; NH4 Conc. 40 mM in the 310 μL total volume, subject 8): 255.8 s | effect on the Lee-White clotting time of whole sheep blood (whole sheep blood; listed as Sample A liquid component): prolonged | effect on the Lee-White clotting time of whole sheep blood (whole sheep blood; [1]): delay and/or prevent clotting | effect on clotting in whole human blood (whole human blood): delay and/or prevent clotting
